The record followed here is patent publication US8513181B2, “Substances and compositions for enhancing DNA repair and methods of use” (Cornell University, priority 2008, dated 2013).

One data set concerns mouse CUL4B. The experiment in a line: Western blotting of MEF extracts after lentiviral shRNA infection (knockdown efficiency). It counts as cell-based. The conditions noted are these: early passage (P3) primary MEFs, harvested 48 hours post-infection. The text has this: (§1) Short hairpin (sh) RNAs for gene targeting were as follows: murine sh-Cul4b was 5′-[…]-3′ (SEQ ID NO: 9); murine sh-Pcid2-1 was 5′-[…]-3′ (SEQ ID NO: 10); murine sh-Pcid2-2 was 5′-[…]-3′ (SEQ ID NO: 11); murine sh-p21 was 5′-[…]-3′ (SEQ ID NO: 12); scrambled sh-Cul4b was 5′-[…]-3′ (SEQ ID NO: 13); and human sh-Cul4a was 5′-GAAGCTGGTCATCAAGAAC-3′ (SEQ ID NO: 14). shRNAs were subcloned into the FUGW lentiviral vector and expressed under the U6 promoter (Sui and Shi, Methods Mol. Biol., 309: 205-218 (2005)). Recombinant lentiviruses were generated for infection of MEFs or HCT116 cells.
(§2) MEFs were isolated from embryonic day (E) 13.5 wild-type or Cul4a knockout embryos. shRNAs for murine Cul4b and Pcid2 as well as scrambled controls were subcloned into the FUGW lentiviral vector and expressed under the U6 promoter as described in Example 1. Recombinant shCul4b and shPcid2 lentiviruses were generated for infection of primary Cu/4a^f/f and Cul4a^−/− MEF cells. shRNA-containing FUGW lentivirus were added onto Cu/4a^f/f and Cul4a^−/− MEFs every 12 hours for 36 hours. The cells were harvested 48 hours post-infection, and Western blotting was performed on MEF extracts using antibodies against CUL4A (C-19, Santa Cruz Biotechnology), CUL-4B, DDB2 (Cell Signaling Technology, Danvers, Mass.), p21 (Santa Cruz Biotechnology), XPC, histone H3, and β-actin (Sigma, St. Louis, Mo.).
A general note: Immunoblotting shows a protein as a band on a membrane.

A further data set has as its system Cul4a−/− MEFs. As to the kind of experiment: BrdU incorporation and cell viability of Cul4a−/− MEFs after Cul4b silencing. The note with it: silencing of Cul4b in Cul4a−/− MEFs. It counts as cell-based, mouse.
Text: FIG. 3A is a bar graph depicting the percentage of control (f/f-4a) and Cul4a knockout (ko-4a) MEFs infected with a lentivirus encoding GFP and either short hairpin (sh)-4b or scrambled (scm)-4b, at the indicated time point, as determined by FACS. FIG. 3B is a bar graph depicting BrdU incorporation into the MEFs described in FIG. 3A, as determined by counting BrdU^+ cells in microscopic fields.
as §1
In general terms: Incorporation of labelled thymidine or its analogues reports DNA synthesis.

Data set [1] concerns UV-induced CPDs and 6-4PPs in primary MEFs. As to the kind of experiment: GGR ELISA assay of CPD and 6-4PP removal in MEFs. It counts as cell-based, mouse. For orientation: In an ELISA, binding on a coated surface is turned into a signal by an enzyme label.
Data set [2] has as its system primary Cul4a f/f and Cul4a−/− MEF cells. As to the kind of experiment: Western blotting of DDB2, p21 and XPC steady-state protein levels in MEFs after lentiviral shRNA. It counts as cell-based, mouse. The note with it: Western blot. Here is the method: as §2
In the next data set the test system is XPC in HCT116 cells. As to the kind of experiment: XPC chromatin binding and ubiquitination after UV irradiation (immunoblot of chromatin-bound extracts). It counts as cell-based, human. The note with it: HCT116, lentiviral shRNA 48 hours. Here is the method: XPC ubiquitination was determined in HCT116 cells following UV irradiation. HCT116 cells were infected with lentiviral shCul4a or control FUGW for 48 hours, UV irradiated at 10 J/m^2 and harvested at 0 hr, 0.5 hr, 1 hr, and 2 hr post-UV. The chromatin-bound extracts were prepared and subjected to immunoblotting.

For a further data set, the system named is HCT116 cells. As to the kind of experiment: CPD repair (NER activity) in UV-irradiated HCT116 cells infected with adenovirus. It counts as cell-based, human. The note with it: HCT116, 10 J/m^2 UV-C, 0-24 hr. Here is the method:
The GGR ELISA assay of CPD and 6-4PP removal was performed as previously described (Chen et al., 2006) in primary Cul4a^−/− (ko-4-a scm-4b), Cu/4b^k/d (f/f-4a sh-4b), and control Cu/4a^f/f (f/f-4a scm-4-b) MEFs (FIG. 7B, ko, knockout; k/d, knockdown; scm, scramble). Briefly, exponentially growing MEF cells were irradiated with 10 J/m^2 UV-C (254 nm) and either harvested immediately (0 hr) or allowed to repair for the duration indicated in FIG. 7B. Genomic DNA was isolated and quantified via liquid scintillation and fluorometric measurements of Hoechst-stained DNA. Denatured genomic DNA was fixed to each well of protamine sulfate-coated 96-well plates and sequentially incubated with monoclonal antibody specific for 6-4PPs (64M-2, 1:5000) or CPDs (1:5000), biotin-F(ab′)2 fragment of anti-mouse IgG (H+L) (1:2000, Zymed) and peroxidase-Streptavidin (1:10,000, Zymed) for 30 min at 37° C. The wells were washed with PBS-Tween and 0.1 M citrate-phosphate buffer and incubated with the substrate solution (0.1 M citrate-phosphate buffer, 0.1 mg/mL tetramethylbenzidine [TMB], 0.03% H2O2) at room temperature for 30 min. […] A450 was determined using a plate reader (Molecular Devices).
HCT116 cells were infected with a control adenovirus or an adenovirus comprising a gene encoding a DN-CUL4 (SEQ ID NO: 18). […] The rate of NER activity was then calculated as the rate of CPD repair as a function of time.

As for “shCul4b: murine short hairpin RNA targeting Cul4b, 5′-GTAGTAACGAGAGAGAAGACT-3′ (SEQ ID NO: 9), in FUGW lentiviral vector (listed as Mus musculus)”, the “reduction of mouse CUL4B protein” value with mouse CUL4B is listed as “over 93%”. Besides, in the data set on Cul4a−/− MEFs, the BrdU incorporation entry is listed as “dramatic reduction” and the cell viability result was “loss of cell viability”. Further, in data set [1] (Cul4b knockdown in Cul4a f/f MEFs, 10 J/m^2 UV-C), the “effect on GGR efficiency (CPD and 6-4PP removal)” value is reported as “no discernable effect”. For the same molecule, in data set [2] (Cul4b knockdown), the “effect on XPC accumulation” value is reported as “marginal effect”. Also, the “effect on p21 protein accumulation” value in data set [2] (Cul4b silencing by RNAi) is given as “little effect”. For the same molecule, the “effect on DDB2 levels” value in data set [2] (lentiviral shRNA) is “only a marginal effect”.

Turning to “sh-p21: murine short hairpin RNA targeting p21, 5′-GAGAACGGTGGAACTTTGACTT-3′ (SEQ ID NO: 12), lentiviral (expressed or natural sequence; listed as Mus musculus)”, in data set [1] (p21 knockdown (or p21 deletion) in Cul4a−/− MEFs, 10 J/m^2 UV, 24-hour repair assay), the “reduction of NER activity in CPD removal compared to Cul4a−/− MEFs” value is 8-11%.

Consider “shCul4a: human short hairpin RNA targeting Cul4a, 5′-GAAGCTGGTCATCAAGAAC-3′ (SEQ ID NO: 14), in FUGW lentiviral vector (listed as Homo sapiens)”, for which the “association of XPC with chromatin” value in the data set on XPC in HCT116 cells (UV 10 J/m^2) is “increased”. Further, the “XPC ubiquitination on chromatin post-UV” value with XPC in HCT116 cells (UV 10 J/m^2, 0-2 hr post-UV) is recorded as “dramatic inhibition”.

B1: DN-CUL4: dominant negative CUL4 fragment (SEQ ID NO: 18) expressed from an adenovirus (protein, listed as Homo sapiens)
chain: MADEAPRKGSFSALVGRTNGLTKPAALAAAPAKPGGAGGSKKLVIKNFRDRPRLPDNYTQDTWRKLHEAVRAVQSSTSIRYNLEELYQAVENLCSHKVSPMLYKQLRQACEDHVQAQILPFREDSLDSVLFLKKINTCWQDHCRQMIMIRSIFLFLDRTYVLQNSTLPSIWDMGLELFRTHIISDKMVQSKTIDGILLLIERERSGEAVDRSLLRSLLGMLSDLQVYKDSFELKFLEETNCLYAAEGQRLMQEREVPEYLNHVSKRLEEEGDRVITYLDHSTQKPLIACVEKQLL
modifications: DN-CUL4A (M1-L295)
With B1, in the data set with HCT116 cells, the “CPD repair compared to control adenovirus cells” value is “occurred earlier and was more complete”.
